Reference: the Deep4Chem optical property database
Several values for one entry are separate records, joined by “and”; a condition that tells them apart may be missing. Equal values may be shown once. Blank lines part the entries; values can stand above or below the compound they belong to.

Experiment: solvent given as SMILES
[1] = in c1ccc2c(c1)c1ccccc1n2-c1ccc(-c2ccc(-n3c4ccccc4c4ccccc43)cc2)cc1

- fluorescence lifetime (in ClCCl): 4.77 ns
Structure (SMILES): Cn1c(=O)cc(C(=O)c2ccccc2)c2sc(-c3ccc(OC(F)(F)F)cc3)cc21

- fluorescence lifetime (in C1CCOC1): 2.1 ns
Structure (SMILES): CCC1(CC)c2cc(-c3cccs3)ccc2-c2c1c1c(c3c2C(CC)(CC)c2cc(-c4cccs4)ccc2-3)C(CC)(CC)c2cc(-c3cccs3)ccc2-1

- fluorescence lifetime (in CCCCCCCCO): 0.8 ns
- fluorescence lifetime (in CCO): 0.17 ns
- fluorescence lifetime (in CO): 0.11 ns
- fluorescence lifetime (in ClC(Cl)Cl): 0.92 ns
- fluorescence lifetime (in ClCCl): 0.74 ns
Structure (SMILES): CCCCCCCCCCCCCCCCN(CCCCCCCCCCCCCCCC)c1ccc(/C=C/c2cc[n+](Cc3cc(C[n+]4ccc(/C=C/c5ccc(N(CCCCCCCCCCCCCCCC)CCCCCCCCCCCCCCCC)cc5)cc4)cc(C[n+]4ccc(/C=C/c5ccc(N(CCCCCCCCCCCCCCCC)CCCCCCCCCCCCCCCC)cc5)cc4)c3)cc2)cc1

- fluorescence lifetime (in O): 7.1 ns
Structure (SMILES): O=C(O)CCCCCn1c2ccc(Br)cc2c(=O)c2cc(S(=O)(=O)O)ccc21

- fluorescence lifetime (in O): 8.33 ns
Structure (SMILES): COc1ccc2ccc(O)cc2c1

- fluorescence lifetime (in C1CCCCC1): 2.6 ns
- fluorescence lifetime (in ClCCl): 2.6 ns
Structure (SMILES): CC(C)[Si]1(C(C)C)c2cc(C#N)ccc2-c2ccc(N(C)C)cc21

- fluorescence lifetime (in CC#N): 1.86 ns
- fluorescence lifetime (in CCCCCC): 0.62 ns
Structure (SMILES): CN(c1ccccc1)c1ccc(/C=C/c2ccccc2)cc1

- fluorescence lifetime (in CS(C)=O): 1.07 ns
Structure (SMILES): Cc1ccc(-c2nc(-c3ccc(-c4nc(-c5ccc(C)cc5)c(-c5ccc(C)cc5)[nH]4)cc3)[nH]c2-c2ccc(C)cc2)cc1

- fluorescence lifetime (in c1cc(-n2c3ccccc3c3ccccc32)cc(-n2c3ccccc3c3ccccc32)c1): 8.4 ns
Structure (SMILES): COc1ccc(-c2ccc3c(c2)c2cc(-c4ccc(OC)cc4)ccc2n3-c2ccc(C(=O)c3ccc4sc5ccccc5c4c3)nc2)cc1

Structure (SMILES): Cc1cc(=O)oc2c3c4c(cc12)CCCN4CCC3
- fluorescence lifetime (in C1CCCCC1): 2.6 ns
- fluorescence lifetime (in CC#N): 3.3 ns
- fluorescence lifetime (in CCC#N): 4.26 ns
- fluorescence lifetime (in CCCCl): 3.75 ns
- fluorescence lifetime (in CCO): 4.5 ns and 4.54 ns
- fluorescence lifetime (in O): 5.9 ns
- fluorescence lifetime (in OC(C(F)(F)F)C(F)(F)F): 6.88 ns
- fluorescence lifetime (in OCC(F)(F)F): 6.36 ns

- fluorescence lifetime (in CO): 0.912 ns
Structure (SMILES): CC1(C)C(/C=C/C2=C(Oc3ccc(CCN=C=S)cc3Br)C(=C/C=C3/N(CCCS(=O)(=O)[O-])c4ccccc4C3(C)C)/CCC2)=[N+](CCCS(=O)(=O)[O-])c2ccccc21

- fluorescence lifetime (in C1CCCCC1): 2.4 ns
- fluorescence lifetime (in CC#N): 3.5 ns
- fluorescence lifetime (in ClCCl): 3.3 ns
Structure (SMILES): O=S1c2ccccc2-c2cc(-c3c4ccccc4cc4ccccc34)ccc21 (configuration not stated)

- fluorescence lifetime (in C1CCOC1): 4.42 ns
Structure (SMILES): COc1ccc(-c2cc3c(cc2OC)-c2c(c4c(c5c2-c2cc(OC)c(-c6ccc(OC)cc6)cc2C5)C(=O)N(CCC(C)C)C4=O)C3)cc1

- fluorescence lifetime (in CC#N): 0.336 ns
Structure (SMILES): C(#Cc1nccnc1C#Cc1ccccc1)c1ccccc1

- fluorescence lifetime (in CC#N): 1.42 ns
Structure (SMILES): COc1ccc(-c2nc(-c3ccc(-c4nc(-c5ccc(OC)cc5)c(-c5ccc(OC)cc5)[nH]4)s3)[nH]c2-c2ccc(OC)cc2)cc1

- fluorescence lifetime (in ClCCl): 1.6 ns
Structure (SMILES): COCCOCCOCCOCC(COCCOCCOCCOC)Oc1cc(/C=C/c2ccc(/C=C(\C#N)c3ccccc3)cc2)c(OC(COCCOCCOCCOC)COCCOCCOCCOC)cc1/C=C/c1ccc(/C=C(\C#N)c2ccccc2)cc1

- fluorescence lifetime (in CC#N): 1.39 ns
- fluorescence lifetime (in CCCCCC): 0.26 ns
- fluorescence lifetime (in CO): 0.29 ns
- fluorescence lifetime (in CS(C)=O): 0.51 ns
Structure (SMILES): c1ccc(-c2nc3c(c4c2-c2ccccc2CC4)-c2ccccc2CC3)cc1

- fluorescence lifetime (in ClCCl): 11.9 ns
Structure (SMILES): CC(C)(C)NC(=O)c1ccc2ccc3cccc4c3c2c1c1c2ccccc2c2ccccc2c41

- fluorescence lifetime (in ClCCl): 1.8 ns
Structure (SMILES): CC(C)(C)c1ccc2c(c1)c1cc(C(C)(C)C)ccc1n2-c1ccc(-c2ccc3c(c2)C2(c4cc(-c5ccc(-n6c7ccc(C(C)(C)C)cc7c7cc(C(C)(C)C)ccc76)cc5)ccc4-3)c3ccccc3S(=O)(=O)c3ccccc32)cc1

Structure (SMILES): N#Cc1cc(N2c3ccccc3Oc3ccccc32)c(N2c3ccccc3Oc3ccccc32)cc1C#N
- fluorescence lifetime [1]: 20 ns

Structure (SMILES): CN(C)c1ccc(/C=C/C=C2\CC/C(=C\C=C\c3ccc(N(C)C)cc3)C2=O)cc1
- fluorescence lifetime (in C1CCCCC1): 0.48 ns
- fluorescence lifetime (in CC#N): 0.49 ns
- fluorescence lifetime (in CC(C)=O): 0.8 ns
- fluorescence lifetime (in CC(C)O): 0.56 ns
- fluorescence lifetime (in CCCCCC): 0.86 ns
- fluorescence lifetime (in CCCCO): 0.37 ns
- fluorescence lifetime (in CCCO): 0.19 ns
- fluorescence lifetime (in CCO): 0.24 ns
- fluorescence lifetime (in CCOC(C)=O): 0.69 ns
- fluorescence lifetime (in CCOCC): 0.76 ns
- fluorescence lifetime (in CN(C)C=O): 0.67 ns
- fluorescence lifetime (in CO): 0.21 ns
- fluorescence lifetime (in CS(C)=O): 0.58 ns
- fluorescence lifetime (in Cc1ccccc1): 0.86 ns
- fluorescence lifetime (in ClC(Cl)(Cl)Cl): 0.76 ns
- fluorescence lifetime (in ClCCl): 1.08 ns
- fluorescence lifetime (in OCC(F)(F)F): 0.14 ns
- fluorescence lifetime (in S=C=S): 0.83 ns
- fluorescence lifetime (in c1ccccc1): 0.81 ns
- fluorescence lifetime (in c1ccncc1): 1.17 ns

- fluorescence lifetime (in CCO): 3.5 ns
- fluorescence lifetime (in ClCCl): 6.9 ns
Structure (SMILES): c1ccc(-c2c3ccccc3c(-c3cncnc3)c3ccccc23)cc1

- fluorescence lifetime (in ClCCl): 10.1 ns
Structure (SMILES): CC(C)(C)c1ccc(-c2nc3c4ccc(-c5ccccc5)cc4c4cc(-c5ccccc5)ccc4c3n2-c2ccc(C(C)(C)C)cc2)cc1

- fluorescence lifetime (in ClCCl): 14.1 ns
Structure (SMILES): CC(C)[Si](C#Cc1cc2c(C#C[Si](C(C)C)(C(C)C)C(C)C)c(C#C[Si](C(C)C)(C(C)C)C(C)C)c3cc(C#C[Si](C(C)C)(C(C)C)C(C)C)cc4c(C#C[Si](C(C)C)(C(C)C)C(C)C)c(C#C[Si](C(C)C)(C(C)C)C(C)C)c(c1)c2c34)(C(C)C)C(C)C

- fluorescence lifetime (in C1COCCO1): 1.05 ns
Structure (SMILES): c1ccc(-c2ccc(-c3ccc(-c4cc(-c5ccc(-c6ccc(-c7ccccc7)cc6)cc5)cc(-c5ccc(-c6ccc(-c7ccccc7)cc6)cc5)c4)cc3)cc2)cc1

- fluorescence lifetime (in CC#N): 1.24 ns
Structure (SMILES): Cn1c(-c2ccc(-c3nc(-c4ccccc4)c(-c4ccccc4)n3C)s2)nc(-c2ccccc2)c1-c1ccccc1

Structure (SMILES): FC(F)(F)c1ccc(-c2nnc(-c3cc(-c4nnc(-c5ccc(C(F)(F)F)cc5)o4)c(-n4c5ccccc5c5ccccc54)cc3-n3c4ccccc4c4ccccc43)o2)cc1
- fluorescence lifetime (in Cc1ccccc1): 5.1 ns
- fluorescence lifetime (in O=P(c1ccccc1)(c1ccccc1)c1ccccc1Oc1ccccc1P(=O)(c1ccccc1)c1ccccc1): 8.6 ns

- fluorescence lifetime (in CC#N): 2.3 ns
Structure (SMILES): COc1cc2cc(/C=C/c3ccc(/C=C/c4ccc(/C=C(\C#N)C(=O)O)cc4)cc3)c(=O)oc2cc1OC

Structure (SMILES): N#Cc1c(-n2c3ccccc3c3ccccc32)c(-n2c3ccc(-c4ccccc4)cc3c3cc(-c4ccccc4)ccc32)c(-n2c3ccccc3c3ccccc32)c(-n2c3ccc(-c4ccccc4)cc3c3cc(-c4ccccc4)ccc32)c1-n1c2ccccc2c2ccccc21
- fluorescence lifetime (in Cc1ccccc1): 5.8 ns
- fluorescence lifetime (in c1cc(-c2cccc(-n3c4ccccc4c4ccccc43)c2)cc(-n2c3ccccc3c3ccccc32)c1): 4.5 ns

- fluorescence lifetime (in ClCCl): 1.86 ns
Structure (SMILES): COc1ccc2cc(/C=C/C3=[O+][B-](F)(F)OC(/C=C/c4ccc5cc(OC)ccc5c4)=C3c3ccccc3)ccc2c1

Structure (SMILES): CCCCCCCCN1c2ccccc2Sc2cc(/C=C/c3ccc(N(c4ccc(/C=C/c5ccc6c(c5)Sc5ccccc5N6CCCCCCCC)cc4)c4ccc(/C=C/c5ccc(/C=C/c6ccc(N(c7ccc(/C=C/c8ccc(N(c9ccccc9)c9ccccc9)cc8)cc7)c7ccc(/C=C/c8ccc(N(c9ccccc9)c9ccccc9)cc8)cc7)cc6)c6nsnc56)cc4)cc3)ccc21
- fluorescence lifetime (in C1CCOC1): 1.76 ns
- fluorescence lifetime (in CCOC(C)=O): 1.79 ns
- fluorescence lifetime (in Cc1ccccc1): 3.49 ns
- fluorescence lifetime (in ClC(Cl)Cl): 2.38 ns
- fluorescence lifetime (in ClCCl): 1.75 ns

- fluorescence lifetime (in ClCCl): 2.97 ns
Structure (SMILES): c1ccc(-c2cc3c(-c4ccccc4)c4cccc5c(-c6ccccc6)cc6c(-c7ccccc7)c7cccc2c7c3c6c54)cc1

Structure (SMILES): O=P1(c2ccccc2)c2ccc(N3c4ccccc4Sc4ccccc43)cc2-c2cc(N3c4ccccc4Sc4ccccc43)ccc21
- fluorescence lifetime [1]: 26 ns

- fluorescence lifetime (in CCCCCC): 67.8 ns
- fluorescence lifetime (in CO): 132 ns
- fluorescence lifetime (in ClCCl): 79.1 ns
Structure (SMILES): Cc1ccc2ccc3cccc4ccc1c2c34

- fluorescence lifetime (in ClC(Cl)Cl): 0.173 ns
Structure (SMILES): F[B-]1(F)OC(c2cccc(Br)c2)=Cc2c3ccccc3cc[n+]21

- fluorescence lifetime (in CC#N): 2.5 ns
Structure (SMILES): CCN(CC)c1ccc2cc3c(cc2c1)C1(c2ccccc2Oc2ccccc21)c1cc2cc(N(CC)CC)ccc2cc1C3=O
